According to patent publication US10544113B2 (priority 2016, dated 2020):
Read-outs that look alike come from different tables or passages of the source.

Target: mu-opioid receptor (MOR) (Homo sapiens (Human), UniProt P35372)
Test: cell-based
Conditions: combined with a MOR antagonist; for AUC: AUC of [Ca2+]i fluorescence, CHO-K1/MOR/Gα15 cells
Protocol: In an exemplary in vitro screening method for identifying antagonist-to-agonist allosteric modifiers of a MOR, cells that express a MOR are treated with a test compound and a MOR antagonist in a cellular calcium fluorescent assay and fluorescence intensity is then measured to determine whether the MOR is activated. A test compound is identified as an antagonist-to-agonist allosteric modifier of the MOR if the MOR is activated.
EC50 herein refers to the concentration of a compound that induces a response halfway between the baseline and the maximum after a specified exposure time. AUC refers to the area under the response curve, an indication of the compound's capability of activating a MOR when combined with a MOR antagonist.
Human embryonic kidney 293 (HEK-293) cells constitutively expressing MOR (HEK-MOR) and DOR (HEK-DOR) (kindly provided by Dr. Ping-Yee Law, University of Minnesota, USA) were cultured in high-glucose Dulbecco's modified Eagle's medium (DMEM, GIBCO) supplemented with 400 μg/mL G418 (Sigma), 2 mM L-glutamine and P/S/F (100 units/mL penicillin, 100 μg/mL streptomycin, 10% fetal bovine serum). Chinese hamster ovary (CHO)-K1 cells, stably expressing hMOR and Gα15 (CHO-K1/MOR/Gα15), were cultured in F12 medium (GIBCO) supplemented with 10 μg/mL Hygromycin B (Invivogen), 20 μg/mL Zeocin (Invivogen) P/S/F (100 units/mL penicillin, 100 μg/mL streptomycin, 10% fetal bovine serum). The cultures were incubated at 37° C. in a humidified 5% CO2 incubator.
One day before the assay, CORNING® black with clear flat bottom 96-well assay plates were coated with a 0.1 mg/mL Poly-L-Lysine solution. CHO-K1/MOR/Gα15 cells were suspended in the F12 medium and plated at a density of ˜8×10^4 cells/well in 200 μL medium. Cells were incubated in a humidified atmosphere of 10% CO2 at 37° C. overnight so as to reach an 80-90% confluent cell monolayer before assay. At the day of assay, 150 μL medium/well was removed from plate. To each well, 50 μL FLIPR® calcium assay reagent dissolved in 1× assay buffer (HBSS: KCl 5 mM, KH2PO4 0.3 mM, NaCl 138 mM, NaHCO3 4 mM, Na2HPO4 0.3 mM, d-glucose 5.6 mM, with additional 20 mM HEPES and 13 mM CaCl2, pH 7.4), with 2.5 mM probenecid was added and the plate was incubated at 37° C. for 1 h. Compounds and other reagents were dissolved in the assay buffer. Using a FlexStationIII (Molecular Devices Corp.), the [Ca^2+]i fluorescence increases after robotic injections of compounds or other reagents were monitored every 1.52 s interval with excitation wavelength at 485 nm and with emission wavelength at 525 nm. The [Ca^2+]i fluorescence was measured up to 90 s after agonist injection.
A CHO-K1 cell line, expressing a MOR and Gα15 (GenScript), was used to set up a sensitive high-throughput screen (HTS) system. In a FLIPR® calcium assay using CHO-K1/MOR/Gα15 cells, activation of MOR elicits an intracellular calcium release leading to an increase in the relative fluorescence units (FRU). […] The HTS was performed in the absence or presence of an opioid antagonist, naloxone (25 nM), to identify antagonist to agonist allosteric modifiers (AAM).
A CHO-K1 cell line, expressing a MOR and Gα15 (GenScript), was used to set up a sensitive assay system for detecting μ-opioid receptor activation. […] The assay was performed in the presence of an opioid antagonist, i.e., naloxone (25 nM), naltrexone (20 nM), samidorphan (10 nM), naloxonazine dihydrochloride (20 nM), β-funaltrexamine hydrochloride (20 nM), cyprodime hydrochloride (500 nM), or nalmefene (20 nM), in combination with compound 58, an antagonist to agonist allosteric modifier (AAM), to identify activation of the μ-opioid receptor.

mu-opioid receptor (MOR), sequence (P35372 whole entry): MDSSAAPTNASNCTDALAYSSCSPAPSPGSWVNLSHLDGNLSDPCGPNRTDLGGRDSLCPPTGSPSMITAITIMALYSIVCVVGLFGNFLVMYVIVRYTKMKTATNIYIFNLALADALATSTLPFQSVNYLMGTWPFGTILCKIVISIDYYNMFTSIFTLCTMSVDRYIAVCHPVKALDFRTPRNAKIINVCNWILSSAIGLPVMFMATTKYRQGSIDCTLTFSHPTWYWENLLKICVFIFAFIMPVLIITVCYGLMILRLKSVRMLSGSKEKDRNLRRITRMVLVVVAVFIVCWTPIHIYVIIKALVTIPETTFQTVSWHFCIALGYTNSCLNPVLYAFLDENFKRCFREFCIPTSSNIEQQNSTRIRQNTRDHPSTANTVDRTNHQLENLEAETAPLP

Structure (SMILES) | FLIPR Ca^2+ AUC | EC50 (read-out: FLIPR Ca^2+ EC50) | AUC | EC50 (EC50, CHO-K1/MOR/Gα15 cells)
Cc1cc(C(=O)OC(C)(C)C)ccc1N1C(=O)CSC1c1ccc(F)cc1 (centres unmarked) [Example 235] | 15203 | 6.8 µM | – | –
Cc1cc(C(=O)OC2(C)CC2)ccc1N1C(=O)CSC1c1ccc(F)cc1 (centres unmarked) [Example 236] | 13348 | 4.7 µM | – | –
Cc1cc(C(=O)OCCC2CC2)ccc1N1C(=O)CSC1c1ccc(F)cc1 (centres unmarked) [Example 238] | 15409 | 12.3 µM | more than 5000 | –
Cc1cc(C(=O)OCC2CCCC2)ccc1N1C(=O)CSC1c1ccc(F)cc1 (centres unmarked) [Example 239] | 4342 | 9.4 µM | – | < 10 µM
Cc1cc(C(=O)OCCOCc2ccccc2)ccc1N1C(=O)CSC1c1ccc(F)cc1 (centres unmarked) [Example 258] | 6353 | 3.3 µM | more than 5000 | < 10 µM
Cc1cc(C(=O)OCc2cccnc2)ccc1N1C(=O)CSC1c1ccc(F)cc1 (centres unmarked) [Example 261] | 11434 | 2.9 µM | more than 5000 | < 10 µM
Cc1cc(C(=O)OCCCc2ccccn2)ccc1N1C(=O)CSC1c1ccc(F)cc1 (centres unmarked) [Example 263] | 14918 | 9.2 µM | more than 5000 | < 10 µM
Cc1cc(C(=O)OCCc2scnc2C)ccc1N1C(=O)CSC1c1ccc(F)cc1 (centres unmarked) [Example 266] | 12653 | 4.6 µM | – | –
COCCCOC(=O)c1ccc(N2C(=O)CSC2c2ccc(F)cc2)c(C)c1 (centres unmarked) [Example 267] | 15960 | 6.4 µM | – | –
CC(=O)COC(=O)c1ccc(N2C(=O)CSC2c2ccc(F)cc2)c(C)c1 (centres unmarked) [Example 268] | 12787 | 3.8 µM | – | –
Cc1cc(C(=O)OCCC#N)ccc1N1C(=O)CSC1c1ccc(F)cc1 (centres unmarked) [Example 269] | 14183 | 12.3 µM | – | –
CSCCOC(=O)c1ccc(N2C(=O)CSC2c2ccc(F)cc2)c(C)c1 (centres unmarked) [Example 270] | – | – | – | < 10 µM
CCSCCOC(=O)c1ccc(N2C(=O)CSC2c2ccc(F)cc2)c(C)c1 (centres unmarked) [Example 271] | 11997 | 14 µM | – | –
CC(=O)OCCOC(=O)c1ccc(N2C(=O)CSC2c2ccc(F)cc2)c(C)c1 (centres unmarked) [Example 272] | – | – | – | < 10 µM
Cc1cc(C(=O)OCOC(=O)C(C)(C)C)ccc1N1C(=O)CSC1c1ccc(F)cc1 (centres unmarked) [Example 273] | 12265 | 5.7 µM | – | < 10 µM
Cc1cc(C(=O)OCC2CCCO2)ccc1N1C(=O)CSC1c1ccc(F)cc1 (centres unmarked) [Example 275] | 11236 | 26.9 µM | – | –
Cc1cc(C(=O)OCC2COC(C)(C)O2)ccc1N1C(=O)CSC1c1ccc(F)cc1 (centres unmarked) [Example 276] | 15090 | 6.3 µM | – | < 10 µM
Cc1cc(C(=O)OC2COC(C)(C)OC2)ccc1N1C(=O)CSC1c1ccc(F)cc1 (centres unmarked) [Example 277] | 14634 | 6.1 µM | – | < 10 µM
COCC(C)OC(=O)c1ccc(N2C(=O)CSC2c2ccc(F)cc2)c(C)c1 (centres unmarked) [Example 279] | 10883 | 4.1 µM | – | –
CCOCCOC(=O)c1ccc(N2C(=O)CSC2c2ccc(F)cc2)c(C)c1 (centres unmarked) [Example 281] | 9792 | 4.5 µM | – | –
Cc1cc(C(=O)OCC(F)(F)F)ccc1N1C(=O)CSC1c1ccc(F)cc1 (centres unmarked) [Example 286] | 13001 | 9.2 µM | more than 5000 | < 10 µM
Cc1cc(C(=O)OCCN(C)C)ccc1N1C(=O)CSC1c1ccc(F)cc1 (centres unmarked) [Example 290] | 14778 | 10 µM | – | –
Cc1cc(C(=O)OCCCN(C)C)ccc1N1C(=O)CSC1c1ccc(F)cc1 (centres unmarked) [Example 291] | 8913 | 1.9 µM | – | –

Structure (SMILES) | FLIPR Ca^2+ AUC | EC50 (read-out: FLIPR Ca^2+ EC50) | AUC | EC50 (EC50, CHO-K1/MOR/Gα15 cells)
CCN(CC)CCOC(=O)c1ccc(N2C(=O)CSC2c2ccc(F)cc2)c(C)c1 (centres unmarked) [Example 292] | 10056 | 3.1 µM | – | –
Cc1cc(C(=O)OCCN2CCCCC2)ccc1N1C(=O)CSC1c1ccc(F)cc1 (centres unmarked) [Example 295] | 10426 | 2.8 µM | – | –
Cc1cc(C(=O)OCCN2CCOCC2)ccc1N1C(=O)CSC1c1ccc(F)cc1 (centres unmarked) [Example 296] | 14052 | 2.3 µM | – | –
Cc1cc(C(=O)OCCCN2CCOCC2)ccc1N1C(=O)CSC1c1ccc(F)cc1 (centres unmarked) [Example 297] | 13753 | 8.1 µM | – | –
Cc1cc(C(=O)OCCCN2CCCCC2)ccc1N1C(=O)CSC1c1ccc(F)cc1 (centres unmarked) [Example 298] | 9283 | 1.7 µM | – | –
CC(=O)N1CCC(CCOC(=O)c2ccc(N3C(=O)CSC3c3ccc(F)cc3)c(C)c2)CC1 (centres unmarked) [Example 299] | 10053 | 5 µM | – | –
Cc1cc(C(=O)OC2CCN(C)C2)ccc1N1C(=O)CSC1c1ccc(F)cc1 (centres unmarked) [Example 300] | 12918 | 1.6 µM | – | –
Cc1cc(C(=O)OC2CCN(C)CC2)ccc1N1C(=O)CSC1c1ccc(F)cc1 (centres unmarked) [Example 301] | 9593 | 0.9 µM | – | –
Cc1cc(C(=O)OCCOCCN)ccc1N1C(=O)CSC1c1ccc(F)cc1 (centres unmarked) [Example 303] | 9530 | 7 µM | more than 5000 | < 10 µM
Cc1cc(C(=O)OCCOCCN(C)C)ccc1N1C(=O)CSC1c1ccc(F)cc1 (centres unmarked) [Example 306] | 7531 | 6.2 µM | more than 5000 | < 10 µM
Cc1cc(C(=O)OCCOCCN2CCCC2)ccc1N1C(=O)CSC1c1ccc(F)cc1 (centres unmarked) [Example 307] | 14731 | 8.7 µM | more than 5000 | < 10 µM
Cc1cc(C(=O)OCc2oc(=O)oc2C)ccc1N1C(=O)CSC1c1ccc(F)cc1 (centres unmarked) [Example 311] | – | – | – | < 10 µM
CCOC(=O)OC(C)OC(=O)c1ccc(N2C(=O)CSC2c2ccc(F)cc2)c(C)c1 (centres unmarked) [Example 313, 3-(1,5-Dimethyl-3-oxo-2-phenyl-2,3-dihydro-1H-pyrazol-4-yl)-2-(4-(methylthi)phenyl)thiazolidin-4-one] | – | – | – | < 10 µM
Cc1cc(C(=O)OCOC(=O)OC(C)C)ccc1N1C(=O)CSC1c1ccc(F)cc1 (centres unmarked) [Example 314] | – | – | – | < 10 µM
Cc1cc(C(=O)OC(C)CNC(=O)c2cccnc2)ccc1N1C(=O)CSC1c1ccc(F)cc1 (centres unmarked) [Example 326] | – | – | – | < 10 µM
Cc1cc(C(=O)OC(C)CNC(=O)c2ccc[n+](C)c2)ccc1N1C(=O)CSC1c1ccc(F)cc1 (centres unmarked) [Example 328] | – | 11.8 µM | – | –
Cc1cc(C(N)=O)ccc1N1C(=O)CSC1c1ccc(F)cc1 (centres unmarked) [Example 329] | 13749 | 1.7 µM | more than 5000 | < 10 µM
CNC(=O)c1ccc(N2C(=O)CSC2c2ccc(F)cc2)c(C)c1 (centres unmarked) [Example 331] | – | – | – | < 10 µM
Cc1cc(C(=O)N(C)C)ccc1N1C(=O)CSC1c1ccc(F)cc1 (centres unmarked) [Example 332] | – | – | – | < 10 µM
CCCNC(=O)c1ccc(N2C(=O)CSC2c2ccc(F)cc2)c(C)c1 (centres unmarked) [Example 334] | 9672 | 5.7 µM | – | < 10 µM
CCNC(=O)c1ccc(N2C(=O)CSC2c2ccc(F)cc2)c(C)c1 (centres unmarked) [Example 335] | 11180 | 4.2 µM | – | < 10 µM
Cc1cc(C(=O)NC2CC2)ccc1N1C(=O)CSC1c1ccc(F)cc1 (centres unmarked) [Example 336] | 11347 | 11 µM | – | –
